Among the data in ChEMBL document CHEMBL4020811, “JAK2 JH2 Fluorescence Polarization Assay and Crystal Structures for Complexes with Three Small Molecules” (ACS Med Chem Lett, 2017) are Kd values, retold here.

In the experiment the target is Tyrosine-protein kinase JAK2 (Homo sapiens, UniProt O60674). The experiment is described as follows: Binding affinity to wild type JAK2 JH2 domain (unknown origin) by competitive fluorescence polarization assay. A general note: Fluorescence polarisation rises when a labelled molecule tumbles more slowly, as on binding a larger partner.
Sequence of Tyrosine-protein kinase JAK2 (O60674 whole entry, the tested form may be a part): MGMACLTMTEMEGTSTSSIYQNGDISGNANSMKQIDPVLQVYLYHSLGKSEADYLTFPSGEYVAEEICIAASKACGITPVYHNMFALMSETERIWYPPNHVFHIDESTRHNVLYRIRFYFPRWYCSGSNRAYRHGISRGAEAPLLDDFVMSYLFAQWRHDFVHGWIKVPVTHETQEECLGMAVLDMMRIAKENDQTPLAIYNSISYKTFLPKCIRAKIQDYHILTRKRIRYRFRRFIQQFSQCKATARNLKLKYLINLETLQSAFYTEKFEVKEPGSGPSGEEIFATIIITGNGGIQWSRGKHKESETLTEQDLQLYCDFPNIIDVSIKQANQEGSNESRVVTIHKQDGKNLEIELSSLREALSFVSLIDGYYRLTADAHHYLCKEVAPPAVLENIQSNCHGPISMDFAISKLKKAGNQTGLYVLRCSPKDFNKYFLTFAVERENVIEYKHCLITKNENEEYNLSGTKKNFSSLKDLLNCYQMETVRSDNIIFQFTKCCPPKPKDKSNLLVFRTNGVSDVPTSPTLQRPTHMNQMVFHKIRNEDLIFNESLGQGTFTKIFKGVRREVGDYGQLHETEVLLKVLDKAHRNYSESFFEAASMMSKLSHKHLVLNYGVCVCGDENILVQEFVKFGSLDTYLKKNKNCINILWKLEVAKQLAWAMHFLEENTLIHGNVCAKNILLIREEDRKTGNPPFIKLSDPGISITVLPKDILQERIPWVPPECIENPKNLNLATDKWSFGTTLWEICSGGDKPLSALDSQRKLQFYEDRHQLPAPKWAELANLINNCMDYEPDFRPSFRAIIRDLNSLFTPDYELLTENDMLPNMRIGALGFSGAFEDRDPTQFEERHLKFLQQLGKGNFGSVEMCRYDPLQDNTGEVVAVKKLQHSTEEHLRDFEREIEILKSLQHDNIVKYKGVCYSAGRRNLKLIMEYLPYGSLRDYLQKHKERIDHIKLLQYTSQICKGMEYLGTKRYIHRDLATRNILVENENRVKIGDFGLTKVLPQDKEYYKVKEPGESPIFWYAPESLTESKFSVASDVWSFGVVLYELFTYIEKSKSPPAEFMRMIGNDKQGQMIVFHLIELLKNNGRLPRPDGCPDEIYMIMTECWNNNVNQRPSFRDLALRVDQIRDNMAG
`CN(Cc1ccc(Nc2nc(N)n(C(=O)c3c(F)cccc3F)n2)cc1)C(=S)Nc1ccc2c(c1)C(=O)OC21c2ccc(O)cc2Oc2cc(O)ccc21`: the Kd – broadly, the equilibrium constant for the complex coming apart – came out at 0.205 µM.

With `N#Cc1ccc(Nc2nc(N)cc(-n3ccc(CO)n3)n2)cc1`, the Kd is 57.3 µM.

As to `N#Cc1ccc(Nc2nc(N)nc(-c3ccc(CO)o3)n2)cc1`, the Kd was 122 µM.

Compound `CS(=O)(=O)NCc1cn(-c2nc(N)nc(Nc3ccc(C#N)cc3)n2)nn1` gave a Kd of 106 µM.

In turn, `Cc1cc(C)n2c1C=C1C=CC(CCC(=O)NCCNC(=O)O[C@H]3[C@@H](O)[C@H](n4cnc5c(N)ncnc54)O[C@@H]3COP(=O)(O)OP(=O)(O)OP(=O)(O)O)=[N+]1[B-]2(F)F` gave a Kd of 7 µM.

Take `Nc1nc(Nc2ccc(C(=O)NCCCCCNC(=S)Nc3ccc4c(c3)C(=O)OC43c4ccc(O)cc4Oc4cc(O)ccc43)cc2)nn1C(=O)c1c(F)cccc1F`: binding was put at a Kd of 0.227 µM.
